Source: patent US10562857B2 (AFASCI, Inc., priority 2015, dated 2020)
“Also recorded” adds a separate entry of the source.

How the values were obtained:
Plasma stability, rat = format: in vitro ADME
Source text: (§1) In vitro data of metabolic stability and protein binding as well as in vivo pharmacokinetic data for compounds of the invention can be generated using the techniques disclosed in, e.g., Obach, R. S. et al., J. Pharmacol. Exp. Ther. 283(1): 46-58 (1997), which is hereby incorporated by reference in its entirety. Various biological, pharmacokinetic and other properties of the compounds, including hepatic microsomal stability, determination of metabolites, binding to proteins such as plasma protein binding, and in vivo studies, including single-dose and multi-dose pharmacokinetic studies, can be determined using the protocols described in that publication and the publications cited therein. Other aspects and advantages of the present invention will become apparent from the above detailed description, as illustrated by way of example of the principles of the invention. The scope of the invention is to be defined by the claims appended hereto and their equivalents. Selected pharmacokinetic studies in vitro and in vivo in rats were performed for preferred compounds, for example EXAMPLE-128 and compared with two reference compounds ML218 and Z944 by a contract research organization (BioDuro, Inc., San Diego, US). Tables 3A and 3B summarize some of the in vitro and vivo pharmacodynamic and pharmacokinetic parameters, respectively.

Rat pharmacokinetics = format: in vivo; conditions: for half-life / AUC / bioavailability: plasma; for AUC: read-out: Rat PK AUCfree; for bioavailability: read-out: Rat PK F (%) bioavailability
Source text: as §1

[1] = Metabolic stability in human liver microsomes; format: in vitro ADME
Source text: as §1

[2] = Metabolic stability in rat liver microsomes; format: in vitro ADME
Source text: as §1

[3] = Plasma protein binding, human; format: in vitro ADME; conditions: for fraction unbound: read-out: PPB % (Human) (converted)
Source text: as §1

[4] = Plasma protein binding, rat; format: in vitro ADME; conditions: for fraction unbound: read-out: PPB % (Rat) (converted)
Source text: as §1

SNL rats = assay: Spinal nerve ligation (SNL) rats, von Frey monofilament test; format: in vivo, rat; conditions: for order of analgesic efficacy against allodynia: each 30 mg/kg P.O.; for SNL Model Mechanical % of baseline: pain in rats, 30 mg/kg, P.O.
Protocol: FIG. 5A. Mechanical pain threshold assessment (von Frey monofilament test) of spinal nerve ligation (SNL) rats' left hindpaws. Each SNL rat received either EXAMPLE-128, at 3, 10 or 30 mg/kg (2 mL oral gavage, P.O.), or vehicle (2 mL 2% DMSO in 0.5% HPC, P.O.). […] Mechanical pain responses were measured at 1, 2, 4 and 6 hours after treatment (n=8 rats per treatment group).
FIG. 5B. Mechanical pain threshold assessment (von Frey monofilament test) of SNL rats' left hindpaws. In the same cohort of animals, each SNL rat received either EXAMPLE-128, -130, Z944 (as a reference compound, each at 30 mg/kg, 2 mL oral gavage, P.O.), or vehicle (2 mL 2% DMSO in 0.5% HPC, P.O.). The degree of analgesia against allodynia in the order of EXAMPLE-128>Z944>EXAMPLE-130 compared to the […] group. Mechanical pain responses were measured at 1, 2, 4 and 6 hours after treatment (n=8 rats per treatment group).
The spinal nerve ligation (SNL) in rats is another commonly used neuropathic pain model (Kim & Chung, 1992). The analgesic effect of the selected EXAMPLE-128 was tested in this model. Baseline mechanical thresholds on the rats' left hindpaws of male rats (Sprague-Dawley rats, 300 g-350 g, Harlan) were taken using von Frey hair monofilaments prior to surgery. Ligation of the L5 peripheral nerve was made on the left side under anesthesia. Total 32 rats underwent surgery (n=8 rats per treatment group). Ten days post-surgery, approximately 75-85(%) reduction in mechanical pain was observed, confirming the presence of mechanical allodynia in the SNL rats. Each rat received either EXAMPLE-128 (at 3, 10 and 30 mg/kg, each dose in […], P.O.), or vehicle (2% DMSO in 0.5% HPC, […], P.O.). Mechanical thresholds were measured at 1, 2, 4, and 6 hours post-treatment/dosing. […] The drug actions started around 1 hour post-injection and peaked between 1 and 2 hours, and the drug effects gradually declined to pre-treatment levels in 6 hours (FIG. 5A). After the drug had been eliminated, and the thresholds had returned to initial mechanical allodynia, a comparative test of EXAMPLE-128 and -130 vs Z944 (each at 30 mg/kg, P.O.) was conducted in the same cohort of SNL rats. The analgesic efficacy is in the order of EXAMPLE-128>Z944>EXAMPLE-130 (FIG. 5B).

[5] = SafetyScreen 44 ancillary pharmacology panel
Source text: Moreover, compounds useful in therapeutic formulations may be further screened for undesired side effect activities by utilizing large ancillary pharmacology panel screens, for example, SafetyScreen 44 and the Ames microsomemutagenicity assay (Eurofins-Cerep, US and France).

[6] = tested on: harmaline-induced tremor in mice; assay: Harmaline-induced essential tremor model in mice; format: in vivo, mouse
Protocol: FIG. 12. Effects of EXAMPLE-128 on harmaline-induced essential tremor model in mice. Harmaline was dissolved in saline and administrated at 10 mg/kg (S.C.) mice (C57BL/6, male, 3-5 months). Ten minutes after tremors occurred, mice were treated with either EXAMPLE-128 (30 mg/kg, I.P.) or vehicle (2% DMSO in 0.5% HPC).
Harmaline can induce tremors modeling human essential tremor manifested as postural and kinetic tremors (Nahab et al., 2012). Harmaline was dissolved in saline and administrated at 10 mg/kg (s.c.) to mice (C57BL/6, male, 3 months) and the mice were immediately returned to homecage monitor with an piezoelectric sensor operated by the SmartCage™ for continual recordings for 60 min. […] Mice were randomly assigned to be treated with EXAMPLE-128 (3, 10 or 30 mg/kg, I.P.) or vehicle (2% DMSO in 0.5% HPC), starting ten min after tremors began, Tremor episode numbers and each episode's duration were offline human scored.

[7] = tested on: baclofen-induced absence seizures in mice; assay: Baclofen-induced absence seizures in mice (EEG spike wave discharges); format: in vivo, mouse; conditions: 30 mg/kg I.P. 30 min before baclofen
Source text: FIG. 11. Effects of EXAMPLE-128 on baclofen-induced absence seizures in mice.
Absence seizures, especially childhood absence epilepsy, is characterized by a brief loss of consciousness and muscle tone as the primary manifestations. Ethosuximide, a weak and non-selective T-type calcium channel inhibitor, is effective in treating only absence seizures (Huguenard J R, 2002); while the GABAB baclofen exacerbates transgenic absence seizure models and alone induces absence seizures in wild-type animals (Han et al., 2012). […] The baclofen-induced brain seizure activity mimics absence seizures.

Plasma stability, human = format: in vitro ADME
Source text: as §1

[8] = iv, read-out: Plasma t1/2 (h) iv (converted)
[9] = po, read-out: Plasma t1/2 (h) po (converted)
[10] = SNL rats, 3, 10 and 30 mg/kg P.O.
[11] = read-out: Human Liver Microsomes Clint (μL/min/mg protein)
[12] = read-out: Human Liver Microsomes t1/2
[13] = read-out: Rat Liver Microsomes Clint (μL/min/mg protein)
[14] = read-out: Rat Liver Microsomes t1/2

Row | SMILES | Plasma Stability @ 5 h % (Rat) (Plasma stability, rat) [%] | Rat PK AUCtotal (μM*h) (Rat pharmacokinetics) [h/µM] | half-life (Rat pharmacokinetics; [8]) [h] | half-life (Rat pharmacokinetics; [9]) [h] | AUC (Rat pharmacokinetics) [µM·h] | bioavailability (Rat pharmacokinetics) [%] | recovery [3] [%] | fraction unbound [3] | recovery [4] [%] | fraction unbound [4] | order of analgesic efficacy against allodynia (SNL rats; SNL rats) | SNL Model Mechanical % of baseline (SNL rats) | Plasma Stability @ 5 h % (Human) (Plasma stability, human) | microsomal CLint [1, 11] [µL/min/mg] | half-life [1, 12] [h] | microsomal CLint [2, 13] [µL/min/mg] | half-life [2, 14] [h] | other results
1 | CC(C)(C)NC(=O)CN1CCC2(CC1)CC2NC(=O)c1cc(F)cc(Cl)c1 (single isomer, unassigned) [Example 128, (S)—N-(6-(2-(tert-Butylamino)-2-oxoethyl)-6-azaspiro[2.5]octan-1-yl)-3-chloro-5-fluorobenzamide or (R)—N-(6-(2-(tert-Butylamino)-2-oxoethyl)-6-azaspiro[2.5]octan-1-yl)-3-chloro-5-fluorobenzamide] | 98.3 | 4.1 | 3.34 | 3.66 | 1 | 62 | 98.3 | 0.043 | 90.4 | 0.242 | EXAMPLE-128>Z944>EXAMPLE-130 | 129 ± 28 % of baseline | 95.7/ % |  |  |  |  | half-life [1]: 6.08 h; microsomal CLint [1]: 1.9 µL/min/mg; half-life [2]: 5.25 h; microsomal CLint [2]: 2.2 µL/min/mg; start of drug action post-injection (SNL rats; [10]): around 1 hour; time for drug effects to decline to pre-treatment levels (SNL rats; [10]): 6 h; mechanical pain threshold of left hindpaw (allodynia) (SNL rats; SNL rats, 3, 10 or 30 mg/kg P.O.): elevated mechanical thresholds in a dose-related manner; also recorded: reduced allodynia compared to the SNI-vehicle group in a dose-related manner; off-target activities [5]: no significant off-target activities; total tremor occurring time in 60 minutes ([6]; harmaline 10 mg/kg S.C., 30 mg/kg I.P.): significantly reduced the total tremor occurring time; total time spent in tremors ([6]; harmaline 10 mg/kg s.c., 3, 10 or 30 mg/kg I.P.): significantly reduced the total time spent in tremors in a dose-dependent manner; spike wave discharges (SWD) occurring frequency [7]: significantly reduced the SWD occurring frequence; also recorded: significantly reduced the SWD occurring frequency
2 | CC(C)(C)NC(=O)CN1CCC2(CC1)C[C@H]2NC(=O)c1cc(F)cc(C(F)(F)F)c1 (single isomer, unassigned) [Example 130, (R)—N-(6-(2-(tert-Butylamino)-2-oxoethyl)-6-azaspiro[2.5]octan-1-yl)-3-fluoro-5-(trifluoromethyl)benzamide or (S)—N-(6-(2-(tert-Butylamino)-2-oxoethyl)-6-azaspiro[2.5]octan-1-yl)-3-fluoro-5-(trifluoromethyl)benzamide] |  |  |  |  |  |  |  |  |  |  | EXAMPLE-128>Z944>EXAMPLE-130 |  |  |  |  |  |  | 
3 | CC(C)(C)CCN1C[C@@H]2[C@@H](CNC(=O)c3cc(Cl)cc(Cl)c3)[C@@H]2C1 [ML218, 3,5-Dichloro-N-[[(1α,5α,6-exo,6α)-3-(3,3-dimethylbutyl)-3-azabicyclo[3.1.0]hex-6-yl]methyl]benzamide, reference compound] | 99.2 | 0.071 | 236 |  | 0.007 | 28 | 97.1 | 0.046 | 94.9 | 0.108 |  |  | 97.9/ % | 1.1 | 10.5 | 5.5 | 2.1 | 
4 | CC(C)(C)NC(=O)CN1CCC(CNC(=O)c2cc(F)cc(Cl)c2)CC1 [Z944, reference compound] | 100 | 0.51 | 1.5 | 2.26 | 0.14 | 55 | 93.6 | 0.064 | 91.1 | 0.287 | EXAMPLE-128>Z944>EXAMPLE-130 | 94 ± 38 % of baseline | 100/ % | 5.5 | 2.1 | 13.2 | 0.875 | 
